# Data from patent US20100068302A1, “METHODS AND COMPOSITIONS FOR THE TREATMENT OF CANCER” (TRASLATIONAL CANCER DRUGS PHARMA, S.L., priority 2008, published 2010).
# “And” between values parts separate entries of the source, which are not always exact repeats. Equal entries are not always repeated. Where two headings read alike, the source gives them in different places.
# Tests used:
# [1] = test system: primary cultures of resected NSCLC tumours; test: Primary cultures of NSCLC tumours treated 10 days, Cristal Violet quantification; type: cell-based, human; conditions: for RESISTANT (% of samples) / RESISTANT (number of tumour samples) / SENSITIVES (% of samples) / SENSITIVES (number of tumour samples): primary NSCLC tumour cultures, 0-20 μM, 10 days
# Text: Specimens of lung cancer tissue from 84 randomly selected patients who underwent surgical resection of NSCLC between 2001 and 2004 and that were followed up by The Medical Oncology division at La Paz Hospital in Madrid were used for this analysis. No adjuvant therapy was administrated to these patients. The study was approved by the institutional review board of the hospitals, and written informed consent was obtained from all patients.
# Resected tissues from NSCLC patients were dissociated (Cell dissociation sieve-tissued grinder Kit CD1, SIGMA), and the obtained cells were seeded in 24 well plates (BD, Falcon, Bioscience, San Jose, Calif., USA). […] The final persistent population in each well was quantified by the method of Cristal Violet as previously described (Rodríguez-González, A. et al., Oncogene, 22:8803-8812). […]
# [2] = test system: Human primary mammary epithelial cells, HMEC; test: Cell proliferation assay (MTT), Primary HMEC; type: cell-based
# Experimental: (§1) All cell lines used in this study were maintained under standard conditions of temperature (37° C.), humidity (95%), and carbon dioxide (5%). Human primary bronchial epithelial cells, NHBE (BEC) (Cambrex, CC-2541) were grown in BEGM (Bronchial Epithelial cell growth media) BulletKit (Cambrex, CC-3170). Human primary mammary epithelial cells, HMEC (Clonetics, CC-2551) were grown in MEBM medium supplemented with a bullet kit (Clonetics, CC-3150). Epithelial non-small lung cancer cells H460 and H1299, and small cell lung cancer cell lines H510 and H82 were maintained in RPMI supplemented with 10% Fetal Bovine Serum (FBS) (Life Technologies, Grand Island, N.Y.).
# (§2) Cells were seeded on 96-well plates (B D, Falcon, Bioscience, San Jose, Calif., USA) at a density of 6000 cells/well, and incubated for 24 h under standard conditions. […] Absorbance is read at 595 nm in a VersaMax Microplate Reader (Molecular Devices, Sunnyvale, Calif., USA). For sensitization with acid ceramidase inhibitor, cells were pre-treated 4 hours with the correspondent IC50 for NOE before treatment with ChoK inhibitors. NOE (N-Oleoyl ethanolamine) was obtained from Calbiochem (La Jolla, Calif., USA).
# [3] = test system: H460 RSM-932AR cells; test: Cell proliferation assay (MTT), H460 line resistant to RSM-932A; type: cell-based, human
# Experimental: (§3) Cell lines resistant to MN58b and RSM-932A (identified as MN58R and RSM-932A-R, respectively) were generated by prolonged continuous exposure to increasing concentrations of each drug. A parallel control (H460 stock) of the cell line in the absence of the compounds was kept in culture for the same time.
# as §2, with “conditions. Then, cells were treated with different concentrations of the ChoK inhibitors (quadruplicates of each concentration) and maintained for 72 hours.” for “conditions.”
# (§4) To further study the mechanism underlying resistance to ChoK inhibition, as well as the implication of acid ceramidase in this effect, we used the human NSCLC-derived H460 cell line for a set of in vitro experiments. […]
# [4] = test system: H460stock cells; test: Cell proliferation assay (MTT), H460stock control line; type: cell-based, human
# Experimental: as §3
# as §2, with “conditions. Then, cells were treated with different concentrations of the ChoK inhibitors (quadruplicates of each concentration) and maintained for 72 hours.” for “conditions.”
# as §4
# [5] = test system: H460 non-small lung cancer cells; test: Cell proliferation assay (MTT), H460; type: cell-based, human
# [6] = test system: Human primary bronchial epithelial cells, NHBE (BEC); test: Cell proliferation assay (MTT), Primary BEC; type: cell-based
# Experimental: as §1, §2
# [7] = test system: H460 cells; test: Combination index assay (Chou Talalay) cisplatin plus ChoK inhibitors; type: cell-based, human; conditions: cisplatin 3 h followed by 40 h of ChoK inhibitor, CI<1 synergistic, CIs<0.5 strong synergistic
# Experimental: All experiments were performed in quadruplicate.
# [8] = test system: H82 small cell lung cancer cells; test: Cell proliferation assay (MTT), H82; type: cell-based; conditions: Homo sapiens
# Experimental: as §1, §2
# [9] = test system: H460 MN58R cells; test: Cell proliferation assay (MTT), H460 line resistant to MN58b; type: cell-based, human
# Experimental: as §3
# as §2, with “conditions. Then, cells were treated with different concentrations of the ChoK inhibitors (quadruplicates of each concentration) and maintained for 72 hours.” for “conditions.”
# as §4
# [10] = test system: H1299 non-small lung cancer cells; test: Cell proliferation assay (MTT), H1299; type: cell-based; conditions: Homo sapiens
# Experimental: as §1, §2
# [11] = test system: H510 small cell lung cancer cells; test: Cell proliferation assay (MTT), H510; type: cell-based; conditions: Homo sapiens
# Experimental: as §1, §2
# [12] = test system: SW620 colon cancer derived cells; test: MTT cytotoxicity, ChoKI and TRAIL, SW620; conditions: SW620 (FIG. 7B)
# Text: (§5) To that end, five colon cancer derived cell lines were used: DLD-1, HT-29, HCT-116, SW620 and SW480.
# [13] = test system: DLD-1 colon cancer derived cells; test: MTT cytotoxicity, ChoKI and TRAIL, DLD-1; conditions: DLD-1, drug alone
# Text: as §5
# [14] = test system: DLD-1, HT-29, HCT-116, SW620 and SW480; test: MTT sensitivity in five colon cancer derived cell lines; type: cell-based; conditions: five colon cancer derived cell lines (FIG. 7)
# Text: as §5
# [15] = test system: HT-29 colon cancer derived cells; test: MTT cytotoxicity, ChoKI and TRAIL, HT-29; conditions: HT-29, drug alone
# Text: as §5
# [16] = of 84 patients, nearly 100% of cells alive at 20 μM at day 10
# [17] = Homo sapiens, NCI-H460, read-out: IC50
# [18] = Homo sapiens, NCI-H460, 72 h, H460, single agent (Table 7), read-out: IC50 72 h
compound,measurement,setting,value
Nc1ccn([C@@H]2O[C@H](CO)[C@@H](O)C2(F)F)c(=O)n1 [Gemcitabine],RESISTANT (% of samples),[1],65.4%
same,RESISTANT (number of tumour samples),[1],34
same,SENSITIVES (% of samples),[1],34.6%
same,SENSITIVES (number of tumour samples),[1],18
"CN(C)c1cc[n+](Cc2ccc(CCCCc3ccc(C[n+]4ccc(N(C)C)cc4)cc3)cc2)cc1 [MN58b, 1,4-(4-4′-Bis-((4-(dimethylamine)pyridinium-1-yl)methyl)diphenyl)butane dibromide]",IC50,"[2]; 48 h, read-out: IC50 48 h",44700 ± 4950 nM
same,IC50,"[2]; 72 h, read-out: IC50 72 h",20900 ± 2700 nM
same,IC50,"[2]; 144 h, read-out: IC50 144 h",3400 ± 130 nM
same,samples highly sensitive (%),[1]; among the 45 sensitive tumours,33.3%
same,samples partially sensitive (%),[1]; among the 45 sensitive tumours,66.7%
same,samples partially sensitive (number),"[1]; among the 45 sensitive tumours, around 50% of cells alive at end of treatment",30
same,samples highly sensitive (number),"[1]; among the 45 sensitive tumours, viability abolished at low concentrations, day 10",15
same,tumours sensitive to the antiproliferative effect (%),"[1]; of 84 patients, day 10",53.6%
same,tumours sensitive to the antiproliferative effect (number),"[1]; of 84 patients, day 10",45
same,samples fully resistant (%),[1]; [16],"46,4%"
same,samples fully resistant (number),[1]; [16],39
same,RESISTANT (% of samples),[1],44.4%
same,RESISTANT (number of tumour samples),[1],28
same,SENSITIVES (% of samples),[1],55.5% and 55%
same,SENSITIVES (number of tumour samples),[1],35
same,IC50,[3]; [17],28800 nM
same,IC50,"[4]; Homo sapiens, read-out: IC50",390 nM
same,IC50,"[5]; Homo sapiens, NCI-H460, 48 h, H460, 48 h, read-out: IC50 48 h",7030 ± 2030 nM
same,IC50,"[5]; Homo sapiens, NCI-H460, 72 h, H460, 72 h (Table 6), read-out: IC50 72 h",2600 ± 800 nM
same,IC50,[5]; [18],280 nM
same,IC50,"[5]; Homo sapiens, NCI-H460, 144 h, H460, 144 h, read-out: IC50 144 h",1100 ± 100 nM
same,IC50,"[5]; Homo sapiens, NCI-H460, H460 (Table 8), read-out: IC50",280 nM
same,IC50,"[6]; 48 h, read-out: IC50 48 h",40500 ± 6200 nM
same,IC50,"[6]; 72 h, read-out: IC50 72 h",18300 ± 4800 nM
same,IC50,"[6]; 144 h, read-out: IC50 144 h",4200 ± 800 nM
same,Combination index (CI) with cisplatin,[7],0.1
same,IC50,"[8]; H82, 48 h, read-out: IC50 48 h",1900 ± 200 nM
same,IC50,"[8]; H82, 72 h, read-out: IC50 72 h",800 ± 40 nM
same,IC50,"[8]; H82, 144 h, read-out: IC50 144 h",270 ± 10 nM
same,IC50,[9]; [17],19200 nM
same,IC50,"[10]; NCI-H1299, 48 h, read-out: IC50 48 h",10300 ± 2500 nM
same,IC50,"[10]; NCI-H1299, 72 h, read-out: IC50 72 h",2700 ± 700 nM
same,IC50,"[10]; NCI-H1299, 144 h, read-out: IC50 144 h",900 ± 100 nM
same,IC50,"[11]; NCI-H510, 48 h, read-out: IC50 48 h",1100 ± 100 nM
same,IC50,"[11]; NCI-H510, 72 h, read-out: IC50 72 h",400 ± 50 nM
same,IC50,"[11]; NCI-H510, 144 h, read-out: IC50 144 h",100 ± 30 nM
"CCCCCCCC/C=C\CCCCCCCC(=O)NCCO [NOE, N-oleoylethanolamine, reference compound]",IC50,[5]; [18],32500 nM
CC(=O)O[C@H]1C(=O)[C@@]2(C)[C@H]([C@H](OC(=O)c3ccccc3)[C@]3(O)C[C@H](OC(=O)[C@H](O)[C@@H](NC(=O)c4ccccc4)c4ccccc4)C(C)=C1C3(C)C)[C@]1(OC(C)=O)CO[C@@H]1C[C@@H]2O [Taxol],RESISTANT (% of samples),[1],56.5%
same,RESISTANT (number of tumour samples),[1],35
same,SENSITIVES (% of samples),[1],43.5%
same,SENSITIVES (number of tumour samples),[1],27
"CCC1=C[C@@H]2CN(C1)Cc1c([nH]c3ccccc13)[C@@](C(=O)OC)(c1cc3c(cc1OC)N(C)[C@H]1[C@@](O)(C(=O)OC)[C@H](OC(C)=O)[C@]4(CC)C=CCN5CC[C@]31[C@@H]54)C2 [Vinolrelbine, vinorelbine]",RESISTANT (% of samples),[1],61.5%
same,RESISTANT (number of tumour samples),[1],24
same,SENSITIVES (% of samples),[1],38.5%
same,SENSITIVES (number of tumour samples),[1],15
"[NH2][Pt]([NH2])([Cl])[Cl] [cDDP, cisplatin, reference compound]",RESISTANT (% of samples),[1],50%
same,RESISTANT (number of tumour samples),[1],31
same,SENSITIVES (% of samples),[1],50%
same,SENSITIVES (number of tumour samples),[1],31
same,IC50,[3],1.5 µg/mL
same,IC50,[4],4.5 µg/mL
same,IC50,[5]; H460,5 µg/mL
same,IC50,[9],2 µg/mL
TRAIL: extracellular domain of human TRAIL (amino acids 95-281),sensitivity to treatment,[12],nearly resistant
same,"cytotoxicity, percentage of cell death",[13],12%
same,sensitivity across the cell lines,[14],very similar for all cell lines except for SW620
same,cytotoxicity,[15],18%
